Results published in patent publication US20240352309A1, “FLUORESCENT DYE, AND PREPARATION METHOD THEREFOR AND USE THEREOF” (FLUORESCENCE DIAGNOSIS (SHANGHAI) BIOTECH COMPANY LTD., priority 2021, published 2024).

What was measured:
[1] = test system: RNA aptamer in stable cell line (293T/17); assay: Confocal imaging of cells expressing RNA aptamer (Test Example 5); type: cell-based; settings: 2 uM dye, 10 min incubation, confocal microscopy; cells not expressing aptamers do not fluoresce
Method: Stable cell line (293T/17) continuously expressing RNA aptamer ([…]) and control cells (293T/17) were used, and cell culture media of dye1, dye12, dye25, and dye41 with a final concentration of 2 uM substituted original cell culture media after the cell line and control cells grew to a cell confluence of 90% under the conventional mammalian cell culture condition (37° C., 5% carbon dioxide, 100% relative humidity), and were incubated for 10 min (37° C., 5% carbon dioxide, 100% relative humidity).

[2] = Fluorescence emission in glycerol and methanol (Test Example 1); type: physicochemical; settings: for Fluorescence intensity ratio in glycerol and methanol: 1×10^−5 M in glycerol vs methanol, maximum excitation wavelength; for Emission wavelength: 1×10^−5 M, excited at maximum excitation wavelength of each dye
Method: The fluorescent dye (molecular rotors) prepared in Examples dye1-dye42 were dissolved in DMSO each to prepare a mother solution with a concentration of 1×10^−2 M, and each mother solution was added to glycerol and methanol respectively and was mixed well, and a solution with a final concentration of 1×10^−5 M was prepared.

[3] = Background fluorescence in PBS (Test Example 4); type: physicochemical; settings: 1×10^−5 M, relative to contrast dyes of the same group (dye48, dye49, dye50, dye47)
Method: The dye1 and dye48; dye22 and dye49; dye40 and dye50; dye9, dye10 and dye47 were added to PBS to prepare a solution with a final concentration of 1×10^−5 M, corresponding maximum excitation wavelengths were used for exciting the dyes so that their fluorescence intensities in PBS could be detected, and normalization was performed with the strongest fluorescence intensity in each group of samples as 100, as shown respectively in FIGS. 21, 22, 23 and 24.

[4] = test system: RNA aptamer in stable cell line (293T/17); assay: Flow detection of cells expressing RNA aptamer (Test Example 6); type: cell-based; settings: 1 μM dye in PBS, 5 minutes
[5] = Emission spectra in glycerol, wavelength adjustment (Test Example 3); type: physicochemical; settings: 1×10^−5 M, dye6 vs dye5, oxo-carbonyl turned into thiocarbonyl
Method: The dye5, dye6, dye11, dye12, dye13, dye14, dye39 and dye42 were added into glycerol to prepare a solution with a final concentration of 1×10^−5 M, fluorescent dyes were excited with corresponding maximum excitation wavelength so as to obtain the emission spectra, and some of the emission spectra were normalized.

[6] = Fluorescence in solvents with different polarities (Test Example 2); type: physicochemical; settings: methylbenzene, ethyl acetate, methyl alcohol, acetonitrile, dimethyl sulfoxide
[7] = Fluorescence emission in glycerol-diethanol mixed solutions of different viscosities (Test Example 2); type: physicochemical; settings: glycerol-diethanol mixed solution, 16.4-946.0 cp, 1×10^−5 M
Description: The dye7, dye9, dye12, dye25, dye40 were respectively added into a glycerol-diethanol mixed solution with the following viscosities: 16.4 cp (the volume ratio of glycerol was 0%), 29.8 cp (the volume ratio of glycerol was 20%), 64.5 cp (the volume ratio of glycerol was 40%), 143.5 cp (the volume ratio of glycerol was 60%), 377.0 cp (the volume ratio of glycerol was 80%), 946.0 cp (the volume ratio of glycerol was 100%), so as to prepare solutions with a final concentration of 1×10^−5 M; the fluorescence emission spectra under different viscosity conditions were shown as FIGS. 1, 3, 5, 7 and 9, wherein the emission wavelengths of the above-mentioned molecular rotors were respectively 620 nm, 576 nm, 650 nm, 670 nm and 720 nm. According to the results, fluorescence intensities of fluorescent dyes of the same concentration increase with ambient viscosity.

Row | Fluorescence intensity ratio in glycerol and methanol [2] | Emission wavelength [2] | SMILES | also measured
1 | 695 | 520 nm | CN1C(=O)S/C(=C\c2ccc(N(C)CCO)s2)C1=O [dye1] | fluorescence of cells expressing aptamers [1]: bright fluorescence; background fluorescence in PBS [3]: lower background fluorescence
2 | 587 | 532 nm | CCN1C(=O)/C(=C/c2ncc(N(C)CCO)s2)SC1=S [dye2] | 
3 | 984 | 620 nm | CN1CCOc2cc(/C=C3\SC(=O)NC3=S)ccc21 [dye4] | 
4 | 1021 | 550 nm | CN1CCSc2cc(/C=C3\SC(=O)NC3=O)ccc21 [dye5] | 
5 | 658 | 608 nm | CN1CCSc2cc(/C=C3\SC(=S)NC3=O)ccc21 [dye6] | increase of emission wavelength [5]: about 50 nm
6 | 754 | 620 nm | CC1=CC(C)(C)N(C)c2ccc(/C=C3\SC(=O)NC3=S)cc21 [dye7] | fluorescence intensity in solvents with different polarities [6]: weak; Emission wavelength [7]: 620 nm; viscosity response of fluorescence intensity [7]: sensitive to viscosity
7 | 951 | 586 nm | O=C1NC(=S)N/C1=C\c1cc2c3c(c1)CCCN3CCC2 [dye9] | fluorescence intensity in solvents with different polarities [6]: weak; Emission wavelength [7]: 576 nm; viscosity response of fluorescence intensity [7]: sensitive to viscosity; background fluorescence in PBS [3]: lower background fluorescence
8 | 638 | 675 nm | S=C1NC(=S)/C(=C/c2cc3c4c(c2)CCCN4CCC3)S1 [dye10] | background fluorescence in PBS [3]: lower background fluorescence
9 | 954 | 590 nm | CN(CCO)c1cc2sc(/C=C3\SC(=O)NC3=O)cc2s1 [dye11] | 
10 | 654 | 650 nm | CN(CCO)c1cc2sc(/C=C3\SC(=S)NC3=O)cc2s1 [dye12] | fluorescence intensity in solvents with different polarities [6]: weak; Emission wavelength [7]: 650 nm; viscosity response of fluorescence intensity [7]: sensitive to viscosity; fluorescence of cells expressing aptamers [1]: bright fluorescence
11 | 852 | 720 nm | CN(CCO)c1cc2sc(/C=C3\SC(=S)NC3=S)cc2s1 [dye14] | 
12 | 891 | 655 nm | CN1C(=O)/C(=C/c2cc3sc(N(C)CCO)cc3s2)SC1=S [dye15] | 
13 | 982 | 730 nm | CN1C(=S)S/C(=C\c2cc3sc(N(C)CCO)cc3s2)C1=S [dye16] | 
14 | 993 | 630 nm | CN(CCO)c1cc2sc(/C=C3\NC(=S)N(CCC(=O)O)C3=O)cc2s1 [dye17] | 
15 | 1026 | 588 nm | CN1C(=O)/C(=C/c2cc3sc(N(C)CCOCCOCCO)cc3s2)SC1=S [dye18] | 
16 | 1098 | 650 nm | CCCCCCCCCCN(C)c1cc2sc(/C=C3\SC(=S)N(C)C3=O)cc2s1 [dye19] | 
17 | 1133 | 650 nm | O=C1NC(=S)S/C1=C\c1cc2sc(N(CCO)CCO)cc2s1 [dye20] | 
18 | 1098 | 635 nm | O=C1NC(=S)N/C1=C\c1cc2sc(N(CCO)CCO)cc2s1 [dye21] | dye background fluorescence before binding [4]: very low; fluorescence after binding to RNA aptamer in cells [4]: notably activated
19 | 687 | 605 nm | CN(CCO)c1ccc2cc(/C=C3\SC(=S)NC3=O)sc2c1 [dye22] | background fluorescence in PBS [3]: lower background fluorescence
20 | 985 | 640 nm | CN(CCNS(C)(=O)=O)c1ccc2cc(/C=C3\NC(=S)NC3=O)sc2c1 [dye23] | 

Row | Fluorescence intensity ratio in glycerol and methanol [2] | Emission wavelength [2] | SMILES | also measured
21 | 465 | 750 nm | CN(C)CCN(C)c1ccc2cc(/C=C3\SC(=O)NC3=O)sc2c1 [dye24] | 
22 | 765 | 590 nm | CN(CCO)c1ccc2nc(/C=C3\SC(=S)NC3=O)sc2c1 [dye27] | 
23 | 682 | 690 nm | CCN1C(=O)S/C(=C\c2cc3ccc(N(C)CCO)cc3o2)C1=O [dye28] | 
24 | 721 | 650 nm | CN1C(=O)/C(=C/c2nc3ccc(N(C)CCO)cc3o2)NC1=S [dye29] | 
25 | 761 | 640 nm | CN(C)c1ccc2cc(/C=C3\SC(=S)N(N)C3=O)sc2c1 [dye30] | 
26 | 980 | 685 nm | CN(C)c1ccc2cc(/C=C3\SC(=S)N(CCC(=O)O)C3=S)oc2c1 [dye31] | 
27 | 687 | 654 nm | CN(C)c1ccc2cc(/C=C3\NC(=S)NC3=S)oc2c1 [dye32] | 
28 | 461 | 622 nm | CN(C)c1ccc2nc(/C=C3\SC(=N)NC3=N)oc2c1 [dye33] | 
29 | 630 | 680 nm | CN(CCO)c1ccc2c(c1)C(C)(C)c1cc(/C=C3\SC(=O)NC3=O)ccc1-2 [dye34] | dye background fluorescence before binding [4]: very low; fluorescence after binding to RNA aptamer in cells [4]: notably activated
30 | 530 | 740 nm | CN(CCO)c1ccc2c(c1)C(C)(C)c1cc(/C=C3\SC(=S)NC3=O)ccc1-2 [dye35] | 
31 | 510 | 735 nm | CN(CCO)c1ccc2c(c1)sc1cc(/C=C3\SC(=S)NC3=O)sc12 [dye36] | 
32 | 741 | 730 nm | CN(CCO)c1cc2cc3sc(/C=C4\OC(=S)NC4=S)cc3cc2s1 [dye38] | 
33 | 627 | 820 nm | CN(CCO)c1ccc2c(c1)C(C)(C)c1cc(/C=C3\SC(=S)NC3=S)sc1-2 [dye39] | 
34 | 695 | 730 nm | CN1C(=S)N/C(=C\c2cc3c(s2)-c2ccc(N(C)CCO)cc2C3(C)C)C1=S [dye40] | fluorescence intensity in solvents with different polarities [6]: weak; Emission wavelength [7]: 720 nm; viscosity response of fluorescence intensity [7]: sensitive to viscosity; background fluorescence in PBS [3]: lower background fluorescence
35 | 594 | 735 nm | CN(CCO)c1cc2c(s1)-c1sc(/C=C3\NC(=S)NC3=O)cc1C2(C)C [dye41] | fluorescence of cells expressing aptamers [1]: bright fluorescence
36 | 364 | 800 nm | CN(CCO)c1cc2c(s1)-c1sc(/C=C3\SC(=S)NC3=S)cc1C2(C)C [dye42] | 
37 | 465 | 680 nm | CN(CCO)c1ccc2c(c1)C(C)(C)C(/C=C1\SC(=O)NC1=O)=N2 [dye44] | 
38 | 562 | 717 nm | CN(CCO)c1ccc2c(c1)C(C)(C)C(/C=C1\SC(=S)NC1=O)=N2 [dye45] | 
39 |  |  | CN(C)c1ccc(C2=C(C#N)C(=C(C#N)C#N)OC2(C)C)cc1 [dye50, reference compound] | dye background fluorescence before binding [4]: obvious

Row | SMILES | Fluorescence intensity ratio in glycerol and methanol [2] | Emission wavelength [2] | also measured
40 | CN1CCOc2cc(/C=C3\NC(=S)NC3=O)ccc21 [dye3] | 637 | 580 nm | dye background fluorescence before binding [4]: very low; fluorescence after binding to RNA aptamer in cells [4]: notably activated
41 | CN1C(=O)/C(=C/c2ccc3cc(N(C)CCCl)ccc3n2)SC1=S [dye26] | 871 | 660 nm | 
42 | CN(CCO)c1cc2c(s1)-c1sc(/C=C3\OC(=N)NC3=N)cc1[Si]2(C)C [dye37] | 620 | 720 nm | 
